Test results taken from PMC11647725, “Discovery of 4-(5-Membered)Heteroarylether-6-methylpicolinamide Negative Allosteric Modulators of Metabotropic Glutamate Receptor Subtype 5” (ACS Medicinal Chemistry Letters, 2024).

Legend:
human mGlu8 = target: T1, human mGlu8 (Homo sapiens, UniProt O00222); experiment: mGlu selectivity, calcium mobilization assay; type: cell-based
T1 construct: expressed in transfected cells
Procedure: (§1) the presence of 5% CO2, the dye solutions were removed and replaced with assay buffer using a microplate washer, leaving 20 μL of assay buffer in the cell plate. The compound, agonist, and cell plates were placed inside the Functional Drug Screening System (FDSS 7000 or uCell, Hamamatsu, Japan) to measure the calcium flux. Assays were run at 37 °C. A triple add protocol was used to measure Ca kinetics. Briefly, after establishment of a fluorescence baseline for 2 seconds (excitation, 480 nm; emission, 530 nm), 20 µL of test compound was added to the cells and the response was measured for 140 seconds. This was followed by the addition of 10 µL (5X) of an EC20 concentration of Glu agonist, and the response of the cells was measured for 125 seconds. A third addition occurred by adding 12 uL (5X) of an EC80 concentration of Glu agonist and the response of the cells was measured for 90 seconds. […] Calcium fluorescence was recorded as fold over basal fluorescence and raw data were normalized to the maximal response to Glu agonist (ECMax). Compound-evoked decreases in calcium response in the presence of Glu EC80 agonist were determined as inhibition activity, and potency (IC50) and maximum inhibition responses (% GluMin) of compounds were determined using a four-parameter logistical equation using GraphPad Prism (La Jolla, CA) or the Dotmatics software platform (Woburn, MA) : […]

human mGlu7 = target: T2, human mGlu7 (Homo sapiens, UniProt Q14831); experiment: mGlu selectivity, calcium mobilization assay; type: cell-based
T2 construct: expressed in transfected cells
Procedure: as §1

T2 sequence (Q14831 35-915): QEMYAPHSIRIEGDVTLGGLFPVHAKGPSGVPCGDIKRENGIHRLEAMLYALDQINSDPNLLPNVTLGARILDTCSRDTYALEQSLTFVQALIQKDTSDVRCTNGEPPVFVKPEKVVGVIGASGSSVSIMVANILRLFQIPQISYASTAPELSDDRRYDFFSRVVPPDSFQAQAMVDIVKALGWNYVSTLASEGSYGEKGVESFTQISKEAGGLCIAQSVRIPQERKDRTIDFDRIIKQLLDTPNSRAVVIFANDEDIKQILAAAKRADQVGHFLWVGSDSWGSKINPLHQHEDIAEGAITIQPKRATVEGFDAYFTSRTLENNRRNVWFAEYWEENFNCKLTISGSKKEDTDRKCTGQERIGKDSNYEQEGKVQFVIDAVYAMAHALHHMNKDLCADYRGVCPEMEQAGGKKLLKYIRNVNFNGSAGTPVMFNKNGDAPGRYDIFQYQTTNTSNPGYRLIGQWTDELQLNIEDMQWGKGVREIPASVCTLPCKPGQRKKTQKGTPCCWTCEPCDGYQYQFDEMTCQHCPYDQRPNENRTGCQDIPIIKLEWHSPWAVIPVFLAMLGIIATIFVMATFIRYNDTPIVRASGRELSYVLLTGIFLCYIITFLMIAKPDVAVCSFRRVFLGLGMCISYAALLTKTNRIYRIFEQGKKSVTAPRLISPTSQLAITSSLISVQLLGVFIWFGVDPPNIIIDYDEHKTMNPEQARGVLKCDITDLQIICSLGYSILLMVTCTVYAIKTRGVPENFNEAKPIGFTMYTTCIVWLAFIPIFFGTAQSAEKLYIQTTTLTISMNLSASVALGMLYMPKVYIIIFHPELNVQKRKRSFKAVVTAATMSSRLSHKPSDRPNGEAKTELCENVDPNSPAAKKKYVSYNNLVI
T1 sequence (O00222 34-908): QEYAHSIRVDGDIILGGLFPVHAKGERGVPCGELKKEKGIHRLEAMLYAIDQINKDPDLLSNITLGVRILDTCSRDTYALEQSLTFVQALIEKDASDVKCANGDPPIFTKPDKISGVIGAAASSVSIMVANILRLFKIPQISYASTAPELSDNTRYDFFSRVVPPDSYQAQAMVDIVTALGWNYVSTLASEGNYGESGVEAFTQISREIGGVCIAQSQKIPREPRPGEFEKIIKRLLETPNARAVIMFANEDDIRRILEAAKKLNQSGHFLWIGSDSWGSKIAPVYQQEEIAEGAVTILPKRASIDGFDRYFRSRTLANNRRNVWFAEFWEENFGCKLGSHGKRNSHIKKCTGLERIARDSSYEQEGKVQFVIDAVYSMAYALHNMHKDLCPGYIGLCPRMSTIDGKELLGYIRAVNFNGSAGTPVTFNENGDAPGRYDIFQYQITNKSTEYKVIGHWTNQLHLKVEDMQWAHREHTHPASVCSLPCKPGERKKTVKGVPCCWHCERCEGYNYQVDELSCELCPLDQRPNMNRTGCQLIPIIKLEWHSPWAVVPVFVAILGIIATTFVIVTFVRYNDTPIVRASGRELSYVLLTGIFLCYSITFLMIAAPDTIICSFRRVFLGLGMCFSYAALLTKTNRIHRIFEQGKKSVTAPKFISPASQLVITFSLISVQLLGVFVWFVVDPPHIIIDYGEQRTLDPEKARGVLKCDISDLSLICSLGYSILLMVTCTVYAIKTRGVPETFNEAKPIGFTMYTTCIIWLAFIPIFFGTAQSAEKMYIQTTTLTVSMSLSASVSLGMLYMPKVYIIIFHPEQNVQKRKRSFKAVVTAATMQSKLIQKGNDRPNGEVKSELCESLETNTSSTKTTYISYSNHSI

SMILES: Cc1cc(Oc2cnn(C)c2)cc(C(=O)Nc2ccc(F)cn2)n1 [22iA]
- IC50, human mGlu8 (human mGlu8): inactive
- IC50, human mGlu7 (human mGlu7): inactive
